Reference: patent publication US20250152592A1, “PHARMACEUTICAL COMPOSITION COMPRISING ALLOPURINOL, FEBUXOSTAT OR PHARMACEUTICALLY ACCEPTABLE SALT THEREOF FOR PREVENTION OR TREATMENT OF CHRONIC KIDNEY DISEASE IN SUBJECT HAVING HIGH SERUM URIC ACID CONCENTRATION” (Indream Healthcare Inc., priority 2022, published 2025)

Experiments:
[1] = system: patients with gout and a history of major cardiovascular diseases; experiment: odds ratio for risk of developing or worsening chronic kidney disease, serum uric acid at or above 6 vs below 6; format: in vivo, human
Protocol: In order to confirm the effect of allopurinol and febuxostat on the kidney disease, the data obtained in the clinical trial described above was analyzed.
The patients were classified into patient groups by specific biomarkers such as blood glucose level, blood pressure, and kidney disease steps, and then risks of developing or worsening the kidney disease in patients who had the serum uric acid concentration decreased to less than 6 and patients who maintained the serum uric acid concentration at or above 6 were confirmed using odds ratios (OR) after the administration of allopurinol and febuxostat, and the results are shown in Tables 1 to 3.
Risks of developing the kidney disease of the patients who had the serum uric acid concentration decreased to less than 6 and the patients who maintained the serum uric acid concentration at or above 6 by administering allopurinol were confirmed using the odds ratios, and the results are shown in the following Table 1.
In Table 6, the risks of developing the kidney disease of the patients who had the serum uric acid concentration decreased to less than 6 and the patients who maintained the serum uric acid concentration at or above 6 by administering febuxostat are confirmed using the odds ratios.
In Table 12, the risks of developing the kidney disease of the patients who had the serum uric acid concentration decreased to less than 6 and the patients who maintained the serum uric acid concentration at or above 6 were confirmed using the odds ratio, in both patient groups to which allopurinol or febuxostat was administered.

[2] = cited from earlier work; for acute renal failure reported more often: post-marketing study, Arthritis Research & Therapy volume 21, Article number: 229 (2019)
[3] = system: patients with gout and a history of major cardiovascular diseases; experiment: clinical trial febuxostat vs allopurinol: serum uric acid, gout flare, treatment discontinuation; format: in vivo, human; settings: for rate of gout flare: overall, during the trial
Protocol: In order to evaluate non-inferiority of febuxostat to allopurinol related to cardiovascular risk, a clinical trial was designed and proceeded.
A multicenter, randomized, double-blind non-inferiority trial was performed. The details of the clinical trial design have been published previously. An independent data and safety monitoring committee with access to unblinded data monitored the clinical trial. The statistical analysis for the data and the safety monitoring committee was performed by an independent statistical group (WebbWrites).
The patients were regarded as having a history of major cardiovascular diseases, if they had myocardial infarction, hospitalization for unstable angina, stroke, hospitalization for transient ischemic attack, peripheral vascular disease, or diabetes mellitus symptoms. All participants provided a prior informed consent form.
The patients were randomly assigned so that they received febuxostat or allopurinol administered once a day in a double-blind manner. The randomization was stratified according to the estimated creatinine clearance at baseline (patient group having an estimated creatinine clearance ≥60 ml per minute vs patient group having an estimated creatinine clearance ≥30 and <60 ml per minute).
The dose of allopurinol was modified according to a kidney function. The patients with the estimated creatinine clearance 60 ml or more per minute i) initially received allopurinol at a dose of 300 mg once a day, and the dose was increased in 100 mg increments monthly until the patient had the serum uric acid concentration of less than 6.0 mg per deciliter or the dosage of allopurinol was 600 mg once a day. The patient having the estimated creatinine clearance of 30 ml or more and less than 60 ml per minute initially received 200 mg of allopurinol, and then the dose was increased in 100 mg increments until the patient either had the serum uric acid concentration of less than 6.0 mg per deciliter or was receiving the allopurinol dose of 400 mg once daily.
The dose of febuxostat was not modified according to the kidney function. The patients who were randomly assigned to receive febuxostat initially received 40 mg once a daily, and continued to receive the same dosage if the serum uric acid concentration was less than 6.0 mg per deciliter after 2 weeks of the treatment. If the serum uric acid concentration was higher than 6.0 mg per deciliter at 2nd week visit, the dose of febuxostat was increased to 80 mg once daily for the remainder of the trial.
During the period, the administration of a double-blind and double-dummy trial medications was guided by an interactive voice-response system which was a procedure to prevent unblinding for the patients whose dose was not adjusted. After completing dose adjustment, the urate level was concealed from the investigators, and the treatment was managed throughout the trial using the interactive voice-response system.
Outpatient visits were conducted according to the following schedule: during screening and randomization, and at 2, 4, 6, 8, 10, 12, and 24 weeks after the randomization, and every 6 months during the subsequent years of the trial. The patients with reduced kidney function or, the patients aged 65 years or older at randomization were visited at 9 and 15 months for monitoring the serum chemical profile. If the patient agreed to be monitored, but would not return for study visit, telephone contact was made, but such method was not preferred or recommended.

[4] = Table 12, both administration groups

Row | SMILES | prevention or treatment of chronic kidney disease when serum uric acid maintained below 6 ([1]; Table 6, blood glucose ≥126 mg/dl, DBP ≤80 mm/Hg, or SBP ≤130 mm/Hg) | prevention or treatment of chronic kidney disease when serum uric acid maintained below 6 ([1]; Table 6, serum uric acid of 8 mg/dL or more or gout lasting for 10 years or more) | prevention or treatment of chronic kidney disease when serum uric acid maintained below 6 [1, 4] | acute renal failure reported more often [2] [times] | proportion of patients with maintenance of serum uric acid concentration at less than 6.0 mg per deciliter ([3]; after 2nd week, at most times, febuxostat group vs allopurinol group) | proportion of patients with serum uric acid concentration of less than 6.0 mg per deciliter ([3]; at the 2nd week, febuxostat group vs allopurinol group) | proportion of patients with serum uric acid concentration of less than 5.0 mg per deciliter ([3]; entire trial, febuxostat group vs allopurinol group) | rate of gout flare [3] [per patient-year] | prevention or treatment of chronic kidney disease when serum uric acid maintained below 6 ([1]; Table 12, blood glucose ≥126 mg/dl, DBP ≤80 mm/Hg, or SBP ≤130 mm/Hg) | risk of developing or worsening the chronic kidney disease, serum uric acid at or above 6 vs below 6 (odds ratio) ([1]; allopurinol, blood glucose level of 126 mg/dl or less) | risk of developing or worsening the chronic kidney disease, serum uric acid at or above 6 vs below 6 (odds ratio) ([1]; allopurinol, blood glucose level of 126 mg/dl or more) | risk of developing or worsening the kidney disease, serum uric acid at or above 6 vs below 6 (odds ratio) ([1]; allopurinol, diastolic blood pressure of 80 mm/Hg or higher) | risk of developing or worsening the chronic kidney disease, serum uric acid at or above 6 vs below 6 (odds ratio) ([1]; allopurinol, diastolic blood pressure of 80 mm/Hg or lower) | risk of developing or worsening the chronic kidney disease, serum uric acid at 6 or more vs below 6 (odds ratio) ([1]; allopurinol, having congestive cardiac failure) | risk of developing or worsening the chronic kidney disease, serum uric acid at 6 or more vs below 6 (odds ratio) ([1]; allopurinol, no congestive cardiac failure) | risk of developing or worsening the chronic kidney disease, serum uric acid at or above 6 vs below 6 (odds ratio) ([1]; allopurinol, systolic blood pressure of 130 mm/Hg or higher) | risk of developing or worsening the chronic kidney disease, serum uric acid at or above 6 vs below 6 (odds ratio) ([1]; allopurinol, systolic blood pressure of 130 mm/Hg or lower) | drug-induced nephrotoxicity ([2]; Am Fam Physician. 2008 September) | effect on kidney function ([2]; Kaohsiung J Med Sci. 2005 May;21(5):228-32)
1 | Cc1nc(-c2ccc(OCC(C)C)c(C#N)c2)sc1C(=O)O [febuxostat] | effectively prevented or treated | effectively prevented or treated | effectively prevented or treated | 5.7 | a higher proportion of the patients in the febuxostat group | higher in the febuxostat group than in the allopurinol group | a larger proportion of the patients in the febuxostat group than in the allopurinol group | 0.68 |  |  |  |  |  |  |  |  |  |  | 
2 | Oc1ncnc2[nH]ncc12 [allopurinol] |  |  | effectively prevented or treated | 3.3 |  |  |  | 0.63 | effectively prevented or treated | about 1.34 times | about 2.53 times | about 1.35 times | about 2.04 times | about 1.21 times | about 1.84 times | about 1.54 times | about 1.93 times | causes acute interstitial nephritis | worsens kidney function
